BindingDB's records for patent US12371430 (Merck Patent, 2025)

Biological target: ATR-interacting protein/Serine/threonine-protein kinase ATR (Homo sapiens, UniProt Q13535)
Experiment: ATR/ATRIP Kinase Assay
Protocol: The ATR/ATRIP enzymatic assay is performed as a TR-FRET-(HTRF™, Cisbio Bioassays) based 384-well assay. In a first step, purified human recombinant ATR/ATRIP (human ATR, full length, GenBank ID: NM_001184.3, and human ATRIP, full length, GenBank ID AF451323.1, co-expressed in a mammalian cell line) is incubated in assay buffer for 15 minutes at 22° C. with test compound at different concentrations or without test compound (as a negative control). The assay buffer contains 25 mM HEPES pH 8.0, 10 mM Mg(CH3COO)2, 1 mM MnCl2, 0.1% BSA, 0.01% Brij 35, and 5 mM dithiothreitol (DTT). An Echo 555 (Labcyte) is used for dispensing of compound solutions. […] The generation of phosphorylated p53 as a result of the ATR mediated reaction in the presence of ATP is detected by using specific antibodies [labeled with the fluorophores europium (Eu) as donor and d2 as acceptor (Cisbio Bioassays)] enabling FRET. […] Following signal development for 2 h the plates are analyzed in an EnVision (PerkinElmer) microplate reader using the TRF mode with laser excitation. Upon excitation of the donor europium at 340 nm the emitted fluorescence light of the acceptor d2 at 665 nm as well as from the donor Eu at 615 nm are measured. The amount of phosphorylated p53 is directly proportional to the ratio of the amounts of emitted light i.e. the ratio of the relative fluorescence units (rfu) at 665 nm and 615 nm. […]

Chain of ATR-interacting protein/Serine/threonine-protein kinase ATR (Q8WXE1 whole entry): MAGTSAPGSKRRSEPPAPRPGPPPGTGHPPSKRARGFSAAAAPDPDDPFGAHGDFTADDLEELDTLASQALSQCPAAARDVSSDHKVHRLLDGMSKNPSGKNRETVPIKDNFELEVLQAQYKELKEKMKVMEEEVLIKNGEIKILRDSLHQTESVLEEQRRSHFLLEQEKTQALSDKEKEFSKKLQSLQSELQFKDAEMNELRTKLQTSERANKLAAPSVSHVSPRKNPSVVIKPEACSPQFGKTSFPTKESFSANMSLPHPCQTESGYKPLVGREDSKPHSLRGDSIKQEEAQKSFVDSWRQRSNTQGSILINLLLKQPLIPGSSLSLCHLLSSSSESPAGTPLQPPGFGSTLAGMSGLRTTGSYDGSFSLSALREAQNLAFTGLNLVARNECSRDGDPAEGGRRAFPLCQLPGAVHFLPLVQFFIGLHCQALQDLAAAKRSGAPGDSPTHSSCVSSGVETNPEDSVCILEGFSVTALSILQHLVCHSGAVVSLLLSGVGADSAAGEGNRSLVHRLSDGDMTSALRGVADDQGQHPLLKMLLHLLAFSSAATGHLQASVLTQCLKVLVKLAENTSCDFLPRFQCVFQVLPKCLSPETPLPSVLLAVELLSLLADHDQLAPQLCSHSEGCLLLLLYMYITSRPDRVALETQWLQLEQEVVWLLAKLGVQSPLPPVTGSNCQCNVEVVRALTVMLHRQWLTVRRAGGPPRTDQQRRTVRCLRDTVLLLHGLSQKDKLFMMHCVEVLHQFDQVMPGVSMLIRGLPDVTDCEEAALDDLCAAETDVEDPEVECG
Chain of ATR-interacting protein/Serine/threonine-protein kinase ATR (Q13535 whole entry): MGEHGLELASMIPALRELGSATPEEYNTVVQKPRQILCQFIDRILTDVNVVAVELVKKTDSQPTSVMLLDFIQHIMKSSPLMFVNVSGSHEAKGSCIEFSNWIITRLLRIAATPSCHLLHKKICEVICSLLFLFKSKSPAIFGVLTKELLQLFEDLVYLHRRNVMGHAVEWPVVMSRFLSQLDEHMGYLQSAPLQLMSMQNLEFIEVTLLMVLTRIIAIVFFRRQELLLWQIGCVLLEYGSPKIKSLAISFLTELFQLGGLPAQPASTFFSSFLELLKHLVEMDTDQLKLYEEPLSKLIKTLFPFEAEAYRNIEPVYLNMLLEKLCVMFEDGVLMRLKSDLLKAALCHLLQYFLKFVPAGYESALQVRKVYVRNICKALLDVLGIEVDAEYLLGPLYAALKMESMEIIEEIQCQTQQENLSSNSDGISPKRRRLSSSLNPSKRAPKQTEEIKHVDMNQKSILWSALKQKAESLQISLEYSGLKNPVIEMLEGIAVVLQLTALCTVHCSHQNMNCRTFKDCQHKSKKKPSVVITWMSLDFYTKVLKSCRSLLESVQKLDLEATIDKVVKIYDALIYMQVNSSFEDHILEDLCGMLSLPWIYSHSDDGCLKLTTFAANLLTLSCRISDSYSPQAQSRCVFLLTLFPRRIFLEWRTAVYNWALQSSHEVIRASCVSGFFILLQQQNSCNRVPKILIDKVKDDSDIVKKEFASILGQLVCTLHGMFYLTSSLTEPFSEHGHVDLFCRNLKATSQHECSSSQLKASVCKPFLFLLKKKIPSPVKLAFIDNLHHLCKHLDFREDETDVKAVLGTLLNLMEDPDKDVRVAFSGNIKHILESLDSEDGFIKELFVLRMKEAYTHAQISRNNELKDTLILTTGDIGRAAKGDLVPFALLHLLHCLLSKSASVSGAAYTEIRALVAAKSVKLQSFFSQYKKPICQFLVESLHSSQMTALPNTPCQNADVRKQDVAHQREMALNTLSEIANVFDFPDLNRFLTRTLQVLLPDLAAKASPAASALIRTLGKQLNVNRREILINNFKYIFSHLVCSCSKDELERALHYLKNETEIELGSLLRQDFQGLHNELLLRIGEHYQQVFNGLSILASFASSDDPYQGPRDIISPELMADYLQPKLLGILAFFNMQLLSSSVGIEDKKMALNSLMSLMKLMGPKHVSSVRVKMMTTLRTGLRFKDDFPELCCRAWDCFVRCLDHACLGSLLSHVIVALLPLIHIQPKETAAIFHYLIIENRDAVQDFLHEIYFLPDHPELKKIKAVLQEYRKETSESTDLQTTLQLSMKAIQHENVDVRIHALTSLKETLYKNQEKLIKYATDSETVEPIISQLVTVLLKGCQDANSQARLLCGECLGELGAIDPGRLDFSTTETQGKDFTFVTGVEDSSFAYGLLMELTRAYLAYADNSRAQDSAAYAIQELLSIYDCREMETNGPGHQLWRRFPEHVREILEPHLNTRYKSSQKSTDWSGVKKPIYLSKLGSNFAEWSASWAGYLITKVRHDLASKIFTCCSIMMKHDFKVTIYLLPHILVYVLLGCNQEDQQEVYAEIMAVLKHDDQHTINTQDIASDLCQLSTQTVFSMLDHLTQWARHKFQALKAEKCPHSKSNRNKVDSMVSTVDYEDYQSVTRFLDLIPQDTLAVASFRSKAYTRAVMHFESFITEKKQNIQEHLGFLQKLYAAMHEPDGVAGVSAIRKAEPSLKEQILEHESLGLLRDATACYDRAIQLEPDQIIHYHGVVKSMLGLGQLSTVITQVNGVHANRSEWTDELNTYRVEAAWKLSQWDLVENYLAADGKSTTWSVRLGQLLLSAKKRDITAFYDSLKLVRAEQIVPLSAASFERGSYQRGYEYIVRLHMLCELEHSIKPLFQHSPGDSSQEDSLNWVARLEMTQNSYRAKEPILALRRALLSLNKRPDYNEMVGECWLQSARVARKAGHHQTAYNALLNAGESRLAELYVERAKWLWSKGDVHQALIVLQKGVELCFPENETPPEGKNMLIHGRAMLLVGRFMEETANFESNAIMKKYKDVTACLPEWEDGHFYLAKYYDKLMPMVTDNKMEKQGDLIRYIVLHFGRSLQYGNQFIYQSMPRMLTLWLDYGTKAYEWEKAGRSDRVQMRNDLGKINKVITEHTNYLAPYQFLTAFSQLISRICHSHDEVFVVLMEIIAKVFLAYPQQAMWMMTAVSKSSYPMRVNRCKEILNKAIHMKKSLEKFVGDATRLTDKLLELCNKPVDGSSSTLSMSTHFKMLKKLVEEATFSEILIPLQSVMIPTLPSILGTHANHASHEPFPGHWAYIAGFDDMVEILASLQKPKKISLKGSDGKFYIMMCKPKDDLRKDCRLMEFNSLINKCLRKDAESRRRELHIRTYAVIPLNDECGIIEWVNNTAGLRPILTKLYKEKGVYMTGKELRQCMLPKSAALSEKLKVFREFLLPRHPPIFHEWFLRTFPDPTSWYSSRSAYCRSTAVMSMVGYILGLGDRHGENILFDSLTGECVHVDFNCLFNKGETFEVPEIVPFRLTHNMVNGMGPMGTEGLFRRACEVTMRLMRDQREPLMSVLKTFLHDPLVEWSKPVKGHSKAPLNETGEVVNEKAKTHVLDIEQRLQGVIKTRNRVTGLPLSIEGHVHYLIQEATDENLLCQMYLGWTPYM

For C[C@@H]1COCCN1c1cc(C2CCS(=O)(=O)CC2)c2c(n1)c(-c1ccn[nH]1)nn2C [US12371430, Compound 82], the IC50 was 0.8 nM.
